Common to all, as to assay: DTP human tumour cell line panel, 48 h
Test [1] concerns MOLT-4 leukemia.
Test [2] concerns SK-MEL-2 melanoma.
In test [3] the test system is OVCAR-5 ovarian.
In test [4] the test system is 786-0 renal.
Test [5] has as its system SF-295 CNS.
Test [6] deals with SW-620 colon.
Test [7] deals with NCI-H522 lung.
Test [8] relates to MDA-MB-231 breast.
Test [9] deals with BT-549 breast.
For test [10], the system named is DU-145 prostate.

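Where inhibition never reached the appropriate level, the endpoint shown equals the highest concentration tested. Otherwise, values were interpolated linearly from a five-concentration, 48-hour dose response in 96-well plates. GI50: concentration for 50% inhibition of growth. TGI denotes the concentration required for complete inhibition of growth.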

As usually defined, the TGI is the concentration at which net growth stops. Broadly, the GI50 is the concentration that inhibits growth by half.

Regarding `CCCCCCCCc1cc2c(O)c(c1)Cc1cc(CCCCCCCC)cc(c1O)Cc1cc(CCCCCCCC)cc(c1O)Cc1cc(CCCCCCCC)cc(c1O)Cc1cc(CCCCCCCC)cc(c1O)Cc1cc(CCCCCCCC)cc(c1O)C2`, the TGI in test [1], in test [2], in test [3], in test [4], in test [5] and in test [6] was greater than 100 µM each time.
Consider `C[N+](C)(C)CC(=O)N/N=C(/Cc1cc(=O)oc2cc(O)ccc12)C(=O)Nc1ccc(Cl)cc1`, for which the concentration for total growth inhibition (TGI) in test [1], in [2], in test [3], in test [4], in test [5] and in test [6] was greater than 100 µM throughout. Further, the TGI in test [7] was greater than 100 µM.
In the case of `Cc1cc2c(cc1C)[n+](=O)cc(C(=O)C/C(=N/NC(=S)NN)C(=O)Nc1cccc(C(F)(F)F)c1)n2[O-]`, the TGI in test [1], in test [2], in test [3], in test [4], in test [5] and in test [6] was greater than 100 µM each time. The compound also gave a TGI in test [7] greater than 100 µM.
Regarding `O=C1C/C(Br)=C\c2ccccc2-c2ccccc21`, the TGI in [1] turned out to be 7.81 µM; in test [2], 12.2 µM; in test [3] it was 6.06 µM; in test [4] it was 2.91 µM; in [5], 16.9 µM; in [6], 2.98 µM. The TGI in [7] was determined as 1.59 µM.
For `O=C1C=C(c2c(O)ccc3ccccc23)c2cc(O)ccc2C1=O`, the total growth inhibition concentration (TGI) in [1] was 8.67 µM; in [2] it was 36.8 µM; in test [3], 35.5 µM; in test [4] it was 33.9 µM; in test [5] it was 34.9 µM; in test [6], 34.3 µM.
On to `CC(=O)N/C(=C\c1ccccc1/C=C(\NC(C)=O)c1nc2cc(C)c(C)cc2[nH]1)c1nc2cc(C)c(C)cc2[nH]1`, for which the TGI was determined as 97.4 µM in [1]; 53.9 µM in test [2]; 94.6 µM in test [3]; 46.6 µM in test [4]; 64.7 µM in test [6]; 24 µM in test [7].
In the case of `O=Cc1cc2c(cc1-c1cc3c(cc1C=O)OCO3)OCO2`, the concentration for total growth inhibition (TGI) in test [1], in test [2], in test [3], in test [4], in test [5] and in [6] was greater than 100 µM in each case. This compound gave a TGI in test [7] greater than 100 µM.
With `CC[C@@H]1NC(C(=O)OC)Cc2c1[nH]c1ccccc21` (stereo partly drawn), the TGI in test [1], in [2], in test [3], in test [4], in test [5] and in test [6] was greater than 100 µM in each case.
As for `COC(=O)c1c2c(c(C)[n+]([O-])c1C)C(=O)C(NCc1ccc(Br)cc1)=CC2=O`, the GI50 was 1.97 µM in test [1]; 1.41 µM in [8]; 1.73 µM in test [9]; 1.88 µM in [2]; 3.13 µM in test [4]. In addition, the TGI was determined as 4.74 µM in test [1]; 5.51 µM in test [8]; 3.52 µM in [9]; 6.12 µM in test [2]; 11.2 µM in test [4].
Take `CCOC(=O)Cc1csc(Nc2ccccc2[N+](=O)[O-])n1`: the concentration for total growth inhibition (TGI) in test [1] was greater than 100 µM; in test [2], greater than 100 µM; in test [3] it was greater than 100 µM; in test [4] it was greater than 100 µM; in test [5] it was greater than 100 µM; in test [6], greater than 93.1 µM. This compound displayed a concentration for total growth inhibition (TGI) in test [7] greater than 100 µM.
With `Cc1nc2c(N)ncnc2o1`, the TGI in [1], in test [2], in [3], in test [4], in test [5] and in test [6] was greater than 100 µM throughout. The concentration for total growth inhibition (TGI) in test [7] was greater than 100 µM.
Consider `CC1=C(C(=O)Nc2ccccc2)C(c2ccc(Cl)c(Cl)c2)C(C(=O)Nc2ccccc2)=C(C)N1`, for which the concentration for total growth inhibition (TGI) in test [1] turned out to be 3.04 µM; in test [3] it was 32.4 µM; in [4], 25.7 µM; in test [5], 25.5 µM; in test [6], 34.7 µM; in [7] it was 25.8 µM.
For the compound `O=C1c2cccc3cccc(c23)C(=O)N1CCN(CCO)CCO`, the TGI in test [1] is 80.8 µM; in test [2] it was 30.2 µM; in test [3], 49.1 µM; in [4], greater than 100 µM; in test [5], greater than 100 µM; in [6] it was 46 µM.
For the compound `CCCCCCCCCCCC[N+]12CC[N+](CCN)(CC1)CC2`, the TGI in [1] was greater than 100 µM; in [2], greater than 100 µM; in test [3], 38.1 µM; in test [4], greater than 100 µM; in test [5], greater than 100 µM; in [6], greater than 100 µM. The compound further showed a TGI in test [7] greater than 100 µM.
As for `c1ccc2c(c1)CCc1c(-c3ccncc3)n[nH]c1-2`, the total growth inhibition concentration (TGI) in test [1] was 85.4 µM; in test [2] it was 38.4 µM; in test [3] it was greater than 100 µM; in [4], greater than 100 µM; in test [5], greater than 100 µM; in test [6], greater than 100 µM.
In the case of `C/C(=N\NC(N)=O)c1sc(-c2nc(C)c(/C(C)=N/NC(N)=O)s2)nc1C`, the TGI in [1], in test [2], in test [3], in test [4], in [5] and in [7] was greater than 100 µM throughout.
For `C=C(C)[C@@H]1CC[C@]2(CN)CC[C@]3(C)[C@H](CC[C@@H]4[C@@]5(C)CCCNC(C)(C)[C@@H]5CC[C@]43C)[C@@H]12`, the GI50 in test [1] is 1.93 µM; in test [8] it was 1.79 µM; in test [2], 2.11 µM; in [3], 1.59 µM; in test [4] it was 1.74 µM; in test [5], 1.78 µM. In addition, the GI50 in test [6] is 1.53 µM; in test [10], 1.59 µM. The TGI in [1] stood at 4.47 µM; in test [8], 3.52 µM; in test [2], 3.88 µM; in test [3], 3.11 µM; in test [4], 3.57 µM; in test [5], 3.29 µM. Moreover, the TGI in test [6] worked out at 3.05 µM; in test [10] it was 2.97 µM.
